From PubChem BioAssay (NCI)
Values joined by “and” are separate entries in the source; they are usually repeats but may differ in a detail not shown here. Equal entries are not always repeated.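 Test compounds were applied to cells in 96-well plates for 48 hours at 5 doses. GI50 = concentration required for 50% inhibition of growth. TGI marks complete inhibition of growth.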

How the values were obtained:
Test in all cases: growth of human tumour cells (NCI), 48 h
NCI-H23 lung = test system: NCI-H23 lung
UACC-62 melanoma = test system: UACC-62 melanoma
ACHN renal = test system: ACHN renal
BT-549 breast = test system: BT-549 breast
MDA-MB-231 breast = test system: MDA-MB-231 breast
MOLT-4 leukemia = test system: MOLT-4 leukemia
SF-539 CNS = test system: SF-539 CNS
M14 melanoma = test system: M14 melanoma
SK-MEL-5 melanoma = test system: SK-MEL-5 melanoma
LOX IMVI melanoma = test system: LOX IMVI melanoma
786-0 renal = test system: 786-0 renal
MDA-MB-435 = test system: MDA-MB-435
A498 renal = test system: A498 renal
SK-MEL-2 melanoma = test system: SK-MEL-2 melanoma
U251 CNS = test system: U251 CNS
HCC-2998 colon = test system: HCC-2998 colon
K-562 leukemia = test system: K-562 leukemia
SK-OV-3 ovarian = test system: SK-OV-3 ovarian
HCT-116 colon = test system: HCT-116 colon
SK-MEL-28 melanoma = test system: SK-MEL-28 melanoma
SF-268 CNS = test system: SF-268 CNS
OVCAR-8 ovarian = test system: OVCAR-8 ovarian
TK-10 renal = test system: TK-10 renal
SF-295 CNS = test system: SF-295 CNS
RXF 393 renal = test system: RXF 393 renal
HT29 colon = test system: HT29 colon
OVCAR-4 ovarian = test system: OVCAR-4 ovarian
IGROV1 ovarian = test system: IGROV1 ovarian
MCF7 breast = test system: MCF7 breast
HL-60(TB) leukemia = test system: HL-60(TB) leukemia
NCI-H522 lung = test system: NCI-H522 lung
HS 578T breast = test system: HS 578T breast
NCI/ADR-RES ovarian = test system: NCI/ADR-RES ovarian
HOP-62 NSCLC = test system: HOP-62 NSCLC
SN12C renal = test system: SN12C renal
HOP-92 NSCLC = test system: HOP-92 NSCLC
DU-145 prostate = test system: DU-145 prostate
EKVX NSCLC = test system: EKVX NSCLC
SR leukemia = test system: SR leukemia
SNB-19 CNS = test system: SNB-19 CNS
HCT-15 colon = test system: HCT-15 colon
CAKI-1 renal = test system: CAKI-1 renal
OVCAR-3 ovarian = test system: OVCAR-3 ovarian
UACC-257 melanoma = test system: UACC-257 melanoma
KM12 colon = test system: KM12 colon
MALME-3M melanoma = test system: MALME-3M melanoma
T-47D breast = test system: T-47D breast
CCRF-CEM leukemia = test system: CCRF-CEM leukemia
COLO 205 colon = test system: COLO 205 colon
SNB-75 CNS = test system: SNB-75 CNS
A549 NSCLC = test system: A549 NSCLC
UO-31 renal = test system: UO-31 renal
SW-620 colon = test system: SW-620 colon
RPMI-8226 leukemia = test system: RPMI-8226 leukemia
PC-3 prostate = test system: PC-3 prostate
NCI-H460 lung = test system: NCI-H460 lung
OVCAR-5 ovarian = test system: OVCAR-5 ovarian
NCI-H226 lung = test system: NCI-H226 lung

Nc1nc(Cl)nc2c1ncn2[C@@H]1O[C@H](COS(N)(=O)=O)[C@@H](O)[C@H]1O
GI50 (NCI-H23 lung): 21 nM and 28.8 nM
TGI (NCI-H23 lung): 53.8 nM and 98.2 nM
GI50 (UACC-62 melanoma): 19 nM and 21.7 nM
TGI (UACC-62 melanoma): 44 nM and 56.1 nM
GI50 (ACHN renal): 25.7 nM and 25.2 nM
TGI (ACHN renal): 77.8 nM and 65.7 nM
GI50 (BT-549 breast): 9 nM and 24.3 nM
TGI (BT-549 breast): 64.6 nM and 71.3 nM
GI50 (MDA-MB-231 breast): 4.81 nM
TGI (MDA-MB-231 breast): 29.4 nM and 26.2 nM
GI50 (MOLT-4 leukemia): 10.9 nM
TGI (MOLT-4 leukemia): 391 nM and 45.7 nM
GI50 (SF-539 CNS): 21.7 nM
TGI (SF-539 CNS): 56.3 nM and 53.3 nM
GI50 (M14 melanoma): 18.6 nM and 19.2 nM
TGI (M14 melanoma): 42.1 nM and 37.5 nM
GI50 (SK-MEL-5 melanoma): 16.8 nM and 17.9 nM
TGI (SK-MEL-5 melanoma): 31.3 nM and 33 nM
GI50 (LOX IMVI melanoma): 18.1 nM and 23.1 nM
TGI (LOX IMVI melanoma): 35.6 nM and 55.2 nM
GI50 (786-0 renal): 21.4 nM and 26.6 nM
TGI (786-0 renal): 55.6 nM and 74.1 nM
GI50 (MDA-MB-435): 17.1 nM and 17.6 nM
TGI (MDA-MB-435): 32.7 nM and 34.1 nM
GI50 (A498 renal): 9.43 nM and 14.8 nM
TGI (A498 renal): 25.4 nM and 30.9 nM
GI50 (SK-MEL-2 melanoma): 18.5 nM and 19.5 nM
TGI (SK-MEL-2 melanoma): 43.7 nM and 42.9 nM
GI50 (U251 CNS): 22.2 nM and 23.1 nM
TGI (U251 CNS): 65.8 nM and 66.3 nM
GI50 (HCC-2998 colon): 19.1 nM and 22.6 nM
TGI (HCC-2998 colon): 38.2 nM and 49.8 nM
GI50 (K-562 leukemia): 17 nM and 19.9 nM
TGI (K-562 leukemia): 118 nM
GI50 (SK-OV-3 ovarian): 24.8 nM and 26 nM
TGI (SK-OV-3 ovarian): 73.9 nM and 66.6 nM
GI50 (HCT-116 colon): 18.3 nM and 25.1 nM
TGI (HCT-116 colon): 104 nM and 76.7 nM
GI50 (SK-MEL-28 melanoma): 20.1 nM and 20.8 nM
TGI (SK-MEL-28 melanoma): 50 nM and 51.1 nM
GI50 (SF-268 CNS): 23.4 nM and 26.9 nM
TGI (SF-268 CNS): 76.8 nM and 88 nM
GI50 (OVCAR-8 ovarian): 17.8 nM and 17.1 nM
TGI (OVCAR-8 ovarian): 56.2 nM and 45.3 nM
GI50 (TK-10 renal): 21 nM and 21.1 nM
TGI (TK-10 renal): 58.1 nM and 65.4 nM
GI50 (SF-295 CNS): 24.4 nM and 32.4 nM
TGI (SF-295 CNS): 75.1 nM and 143 nM
GI50 (RXF 393 renal): 19 nM and 22.9 nM
TGI (RXF 393 renal): 47.5 nM and 49.6 nM
GI50 (HT29 colon): 25.4 nM and 30 nM
TGI (HT29 colon): 67.8 nM and 94.9 nM
GI50 (OVCAR-4 ovarian): 3.03 nM
TGI (OVCAR-4 ovarian): 9.29 nM and 32.4 nM
GI50 (IGROV1 ovarian): 30.4 nM and 30.8 nM
TGI (IGROV1 ovarian): 91.5 nM and 96.4 nM
GI50 (MCF7 breast): 24 nM and 29.3 nM
TGI (HL-60(TB) leukemia): 22.4 nM
GI50 (NCI-H522 lung): 5.03 nM and 21.2 nM
TGI (NCI-H522 lung): 24.4 nM and 62.3 nM
GI50 (HS 578T breast): 26.3 nM and 25.6 nM
TGI (HS 578T breast): 86.9 nM and 78.7 nM
GI50 (NCI/ADR-RES ovarian): 12.1 nM and 19.6 nM
TGI (NCI/ADR-RES ovarian): 54 nM and 145 nM
GI50 (HOP-62 NSCLC): 6.84 nM
TGI (HOP-62 NSCLC): 33.3 nM
GI50 (SN12C renal): 3.77 nM
TGI (SN12C renal): 41.7 nM and 86.8 nM
GI50 (HOP-92 NSCLC): 15.9 nM and 20.6 nM
TGI (HOP-92 NSCLC): 45.4 nM and 56 nM
GI50 (DU-145 prostate): 4.13 nM
TGI (DU-145 prostate): 34.9 nM and 30.1 nM
GI50 (EKVX NSCLC): 23.2 nM and 30.1 nM
TGI (EKVX NSCLC): 68.8 nM and 167 nM
GI50 (SR leukemia): 3.07 nM
TGI (SR leukemia): 48.7 nM and 41.8 nM
GI50 (SNB-19 CNS): 3.65 nM
TGI (SNB-19 CNS): 32.3 nM and 46.5 nM
GI50 (HCT-15 colon): 27.2 nM and 31.3 nM
TGI (HCT-15 colon): 88.1 nM and 168 nM
GI50 (CAKI-1 renal): 20.8 nM
TGI (CAKI-1 renal): 50.6 nM
GI50 (OVCAR-3 ovarian): 28.2 nM
TGI (OVCAR-3 ovarian): 86.4 nM and 71.4 nM
GI50 (UACC-257 melanoma): 23.3 nM and 24.2 nM
TGI (UACC-257 melanoma): 69.4 nM and 68.5 nM
GI50 (KM12 colon): 23.2 nM and 32.1 nM
TGI (KM12 colon): 70.7 nM and 166 nM
GI50 (MALME-3M melanoma): 18.8 nM and 20.9 nM
TGI (MALME-3M melanoma): 40.3 nM and 45.6 nM
GI50 (T-47D breast): 15.6 nM and 20 nM
TGI (T-47D breast): 65.6 nM and 74.4 nM
GI50 (CCRF-CEM leukemia): 15.9 nM and 27 nM
TGI (CCRF-CEM leukemia): 101 nM
GI50 (COLO 205 colon): 20.2 nM and 23.9 nM
TGI (COLO 205 colon): 48.9 nM and 54.3 nM
GI50 (SNB-75 CNS): 20.2 nM and 20.9 nM
TGI (SNB-75 CNS): 55.8 nM and 55.4 nM
GI50 (A549 NSCLC): 25.9 nM and 26.3 nM
TGI (A549 NSCLC): 82.9 nM and 82.3 nM
GI50 (UO-31 renal): 19.3 nM
TGI (UO-31 renal): 47.5 nM
GI50 (SW-620 colon): 25.6 nM and 31.2 nM
GI50 (RPMI-8226 leukemia): 25.1 nM and 25.5 nM
TGI (RPMI-8226 leukemia): 97.5 nM and 72 nM
GI50 (PC-3 prostate): 20.9 nM and 25.8 nM
TGI (PC-3 prostate): 73.7 nM and 80 nM
GI50 (NCI-H460 lung): 30.6 nM and 30.5 nM
TGI (NCI-H460 lung): 104 nM and 108 nM
GI50 (OVCAR-5 ovarian): 4.25 nM
TGI (OVCAR-5 ovarian): 40.1 nM and 38.5 nM
GI50 (NCI-H226 lung): 17.4 nM and 16.7 nM
TGI (NCI-H226 lung): 40.1 nM and 46.3 nM
